Laboratory results as given in PubChem BioAssay (NCI).
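The concentration for 50% growth inhibition is given as GI50. TGI is the concentration that stops growth completely.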

Legend:
Experiment in all cases: growth of human tumour cells (NCI), 384-well format
[1] = tested on: KM12 colon
[2] = tested on: A549 NSCLC
[3] = tested on: OVCAR-3 ovarian
[4] = tested on: U251 glioblastoma
[5] = tested on: IGROV1 ovarian
[6] = tested on: SK-MEL-28 melanoma
[7] = tested on: MDA-MB-468 breast
[8] = tested on: RPMI-8226 leukemia
[9] = tested on: TK-10 renal
[10] = tested on: SNB-75 CNS
[11] = tested on: T-47D breast
[12] = tested on: PC-3 prostate
[13] = tested on: HCT-15 colon
[14] = tested on: SN12C renal
[15] = tested on: SK-MEL-5 melanoma
[16] = tested on: COLO 205 colon
[17] = tested on: SK-OV-3 ovarian
[18] = tested on: BT-549 breast
[19] = tested on: DU-145 prostate
[20] = tested on: HCC-2998 colon
[21] = tested on: MCF7 breast
[22] = tested on: EKVX NSCLC
[23] = tested on: MOLT-4 leukemia
[24] = tested on: UACC-257 melanoma
[25] = tested on: SW-620 colon
[26] = tested on: SR leukemia
[27] = tested on: HOP-92 NSCLC
[28] = tested on: LOX IMVI melanoma
[29] = tested on: HOP-62 NSCLC
[30] = tested on: SNB-19 CNS
[31] = tested on: MDA-MB-435 melanoma
[32] = tested on: ACHN renal
[33] = tested on: NCI-H522 lung
[34] = tested on: HS 578T breast
[35] = tested on: UACC-62 melanoma
[36] = tested on: OVCAR-8 ovarian
[37] = tested on: 786-0 renal
[38] = tested on: NCI-H322M lung
[39] = tested on: OVCAR-5 ovarian
[40] = tested on: SF-539 CNS
[41] = tested on: HCT-116 colon
[42] = tested on: NCI-H23 lung
[43] = tested on: NCI-H460 NSCLC
[44] = tested on: A498 renal
[45] = tested on: OVCAR-4 ovarian
[46] = tested on: HL-60(TB) leukemia
[47] = tested on: M14 melanoma

## O=C1CC[C@H](N2Cc3c(OCc4ccc(CN5CCOCC5)cc4)cccc3C2=O)C(=O)N1
[1]
  GI50: > 100 µM
  TGI: > 100 µM
[2]
  GI50: > 100 µM
  TGI: > 100 µM
[3]
  GI50: > 100 µM
  TGI: > 100 µM
[4]
  GI50: > 100 µM
  TGI: > 100 µM
[5]
  GI50: > 100 µM
  TGI: > 100 µM
[6]
  GI50: > 100 µM
  TGI: > 100 µM
[7]
  GI50: > 100 µM
  TGI: > 100 µM
[8]
  GI50: 11.9 µM
  TGI: > 100 µM
[9]
  GI50: > 100 µM
  TGI: > 100 µM
[10]
  GI50: > 100 µM
  TGI: > 100 µM
[11]
  GI50: > 100 µM
  TGI: > 100 µM
[12]
  GI50: > 100 µM
  TGI: > 100 µM
[13]
  GI50: > 100 µM
  TGI: > 100 µM
[14]
  GI50: > 100 µM
  TGI: > 100 µM
[15]
  GI50: > 100 µM
  TGI: > 100 µM
[16]
  GI50: > 100 µM
  TGI: > 100 µM
[17]
  GI50: > 100 µM
  TGI: > 100 µM
[18]
  GI50: > 100 µM
  TGI: > 100 µM
[19]
  GI50: > 100 µM
  TGI: > 100 µM
[20]
  GI50: > 100 µM
  TGI: > 100 µM
[21]
  GI50: > 100 µM
  TGI: > 100 µM
[22]
  GI50: > 100 µM
  TGI: > 100 µM
[23]
  GI50: > 100 µM
  TGI: > 100 µM
[24]
  GI50: > 100 µM
  TGI: > 100 µM
[25]
  GI50: > 100 µM
  TGI: > 100 µM
[26]
  GI50: > 100 µM
  TGI: > 100 µM
[27]
  GI50: > 100 µM
  TGI: > 100 µM
[28]
  GI50: > 100 µM
  TGI: > 100 µM
[29]
  GI50: > 100 µM
  TGI: > 100 µM
[30]
  GI50: > 100 µM
  TGI: > 100 µM
[31]
  GI50: > 100 µM
  TGI: > 100 µM
[32]
  GI50: > 100 µM
  TGI: > 100 µM
[33]
  GI50: > 100 µM
  TGI: > 100 µM
[34]
  GI50: > 100 µM
  TGI: > 100 µM
[35]
  GI50: > 100 µM
  TGI: > 100 µM
[36]
  GI50: > 100 µM
  TGI: > 100 µM
[37]
  GI50: > 100 µM
  TGI: > 100 µM
[38]
  GI50: > 100 µM
  TGI: > 100 µM
[39]
  GI50: > 100 µM
  TGI: > 100 µM
[40]
  GI50: > 100 µM
  TGI: > 100 µM
[41]
  GI50: > 100 µM
  TGI: > 100 µM
[42]
  GI50: > 100 µM
  TGI: > 100 µM
[43]
  GI50: > 100 µM
  TGI: > 100 µM
[44]
  GI50: > 100 µM
  TGI: > 100 µM
[45]
  GI50: > 100 µM
  TGI: > 100 µM
[46]
  GI50: 43.9 µM
  TGI: > 100 µM
[47]
  GI50: > 100 µM
  TGI: > 100 µM
